B1: MSMEG_3955 with cysteine 63 replaced by alanine (enzyme, Mycobacterium smegmatis mc2 155, UniProt A0QZA6 1-334, looked up)
chain: MNTHFPDTETIHAALALAMRAPSIHNSQPWQWRVGERSVHLYADLDRHLTSTDPDSRDLLLSAGAALHHCVIAFAALGWYASVHRLPNPAEPEHLASIELRRQTPTDLDIALAAAIPRRRTDRRHYSAWPVSHSDIAMMGARAARAGVMLRRVESLSRLQDIVAESIARHAADDGYLRELTAWSGKYASTAGVPARSAPKPEPGAPLSSRMFAGAALKQPDTGAGADEGAVVLALGTADDTRMSRLRAGEATSLILLTATAMGLATCPVTEPLEISETRDAVQAEVFGASAFPQMMLRVGWAPVNADPLPPTPRRHVADAVRWLDGSPFEPESE
notes: MSMEG_3955, Mycobacterium smegmatis mc2 155, made by site-directed mutagenesis on the pET-28a plasmid of the wild-type gene; cysteine (TGC) at position 63 replaced with alanine (GCC); Same construct as m1 apart from C63A; also called cys-63 mutated native protein MSMEG_3955; mutated protein; source: E. coli BL21 (DE3), pET-28a, purified (Ni-NTA)

Columns and labels:
[1] = biological target: T1, MSMEG_3955 (Mycolicibacterium smegmatis, UniProt A0QZA6); experiment: NADPH oxidation at […] nm; type: biochemical; conditions: 200 uM NADPH, 50 uM FMN, 1.6 uM enzyme, 50 mM Tris-HCl pH 7.6, 25 °C, aerobic
T1 construct: ~36 kDa subunit, homotrimer ~115 kDa; co-purifies with FMN
T1 sequence (A0QZA6 entry or part of it): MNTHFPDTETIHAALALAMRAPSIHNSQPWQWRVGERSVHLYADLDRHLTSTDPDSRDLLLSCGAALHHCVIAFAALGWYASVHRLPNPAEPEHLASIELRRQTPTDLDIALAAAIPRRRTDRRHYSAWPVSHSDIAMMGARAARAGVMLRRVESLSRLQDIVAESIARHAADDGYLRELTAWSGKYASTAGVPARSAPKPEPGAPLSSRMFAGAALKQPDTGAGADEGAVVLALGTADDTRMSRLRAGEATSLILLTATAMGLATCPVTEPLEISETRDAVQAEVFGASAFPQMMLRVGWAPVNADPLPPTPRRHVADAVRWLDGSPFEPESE

[2] = biological target: the molecule itself; experiment: native gel or EMSA; NATIVE-PAGE (12% in the methods, 10% in the legend of Fig. 3a) of purified protein loaded without any treatment, 10 ug (Fig. 3a) or 20 ug each of wild type and mutant (Fig. 2a); band at ~115 kDa against ~36 kDa on SDS-PAGE

Molecule	NADPH oxidation at 340 nm [1]	binding result [2]
NC(=O)C1=CN([C@@H]2O[C@H](COP(=O)(O)OP(=O)(O)OC[C@H]3O[C@@H](n4cnc5c(N)ncnc54)[C@H](OP(=O)(O)O)[C@@H]3O)[C@@H](O)[C@H]2O)C=CC1 [NADPH]	showed oxidative NADPH dependent FMN reductase activity as oxidation of NADPH was seen	–
B1	–	binds

From paper PMC8605562, “MSMEG_3955 from Mycobacterium smegmatis is a FMN bounded homotrimeric NAD(P)H:Flavin mononucleotide (FMN) oxidoreductase” (BMC Microbiology, 2021)
